Common to all, as to experiment: level (log10 ratio to DMSO vehicle control); higher = higher biomarker level / cell amount than vehicle control
Holding throughout (conditions): in DMSO

Compound in test [1]: OCCCCC(F)(F)C(F)(F)C(F)(F)C(F)(F)F [4:4 Fluorotelomer alcohol]
As to the method:
(§1)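 BioMAP Diversity Plus panel of 12 human primary cell co-culture systems (3C, 4H, LPS, SAg, BT, BF4T, BE3C, CASM3C, HDF3CGF, KF3CT, MyoF, Mphg). Compounds were added 1 h before stimulation and left for 24 h (MyoF 48 h; BT 72 h for soluble read-outs or 6 d for IgG). Biomarkers were read by ELISA, cytotoxicity by SRB, PBMC viability and proliferation by Alamar Blue. Each well value was divided by the mean of 8 DMSO control wells on the same plate and log10 transformed; duplicate blinded samples were tested at 4 concentrations.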

Compound in test [2]: O=C(CC(=O)C(F)(F)C(F)(F)C(F)(F)F)c1cccs1 [(Perfluorobutyryl)-2-thenoylmethane]
Here is the method: as §1

Compound in test [3]: O=S(=O)(O)CCC(F)(F)C(F)(F)C(F)(F)C(F)(F)F [4:2 Fluorotelomer sulfonic acid]
Here is the method:
as §1

Compound in test [4]: O=C(O)C(F)(F)C(F)(F)C(F)(F)C(F)(F)C(F)(F)C(F)(F)C(F)(F)F [Ammonium perfluorooctanoate]
Here is the method:
as §1

Compound in test [5]: O=P(O)(O)CCC(F)(F)C(F)(F)C(F)(F)C(F)(F)C(F)(F)C(F)(F)F [2-(Perfluorohexyl)ethylphosphonic acid]
Here is the method:
as §1

Compound in test [6]: C=CC(=O)OCCC(F)(F)C(F)(F)C(F)(F)C(F)(F)C(F)(F)C(F)(F)C(F)(F)C(F)(F)F [8:2 Fluorotelomer acrylate]
As to the method:
as §1

Compound in test [7]: O=C(Cl)C(F)(F)C(F)(F)C(F)(F)C(=O)Cl [Hexafluoroglutaryl chloride]
As to the method:
as §1

± gives the standard deviation of the averaged measurements.

With LPS:CD62E/E-Selectin, the “level (log10)” value in test [1] (6700 nM) was -0.0015 ± 0.033; in test [1] (20000 nM) it was -0.0135 ± 0.028; in test [1] (60000 nM), -0.012 ± 0.0099; in test [2] (6700 nM) it was -0.0755 ± 0.047; in test [2] (20000 nM) it was 0.061 ± 0.016; in test [3] (6700 nM), 0.027 ± 0.028. Further, the “level (log10)” value in test [3] (20000 nM) is 0.027 ± 0.041; in test [3] (60000 nM) it was 0.0285 ± 0.066; in test [4] (6700 nM), -0.0015 ± 0.0092; in test [4] (20000 nM) it was -0.012 ± 0.0028; in test [4] (60000 nM), 0.0025 ± 0.013; in test [5] (6700 nM), -0.0005 ± 0.015. Further, the “level (log10)” value in test [5] (20000 nM) is -0.004 ± 0.011; in test [5] (60000 nM) it was 0.0465 ± 0.012; in test [6] (6700 nM), 0.002 ± 0.011; in test [6] (20000 nM), 0 ± 0.011; in test [6] (60000 nM) it was 0.019 ± 0.014; in test [7] (6700 nM), 0.0025 ± 0.0035. In addition, the “level (log10)” value in test [7] (20000 nM) worked out at 0.003 ± 0.02; in test [7] (60000 nM) it was 0.038 ± 0.031.
On to LPS:CXCL8/IL-8, for which the “level (log10)” value was 0.0295 ± 0.005 in test [1] (6700 nM); 0.0205 ± 0.033 in test [1] (20000 nM); 0.027 ± 0.041 in test [1] (60000 nM); -0.0595 ± 0.032 in test [2] (6700 nM); -0.033 ± 0.047 in test [2] (20000 nM); -0.0015 ± 0.097 in test [3] (6700 nM). The “level (log10)” value in test [3] (20000 nM) is 0.027 ± 0.054; in test [3] (60000 nM), 0.111 ± 0.018; in test [4] (6700 nM) it was 0.017 ± 0.0042; in test [4] (20000 nM), 0.038 ± 0.013; in test [4] (60000 nM), 0.047 ± 0.027; in test [5] (6700 nM), -0.023 ± 0.024. Moreover, the “level (log10)” value is -0.0235 ± 0.0021 in test [5] (20000 nM); 0.0375 ± 0.054 in test [5] (60000 nM); -0.0055 ± 0.0092 in test [6] (6700 nM); -0.036 ± 0.04 in test [6] (20000 nM); -0.0085 ± 0.018 in test [6] (60000 nM); -0.0295 ± 0.00071 in test [7] (6700 nM). Further, the “level (log10)” value is 0 ± 0.037 in test [7] (20000 nM) and -0.0035 ± 0.043 in test [7] (60000 nM).
As for LPS:sPGE2, the “level (log10)” value in test [1] (6700 nM) was 0.0035 ± 0.0092; in test [1] (20000 nM), -0.015 ± 0.0099; in test [1] (60000 nM) it was -0.015 ± 0.055; in test [2] (6700 nM) it was -0.066 ± 0.052; in test [2] (20000 nM), 0.0635 ± 0.0064; in test [3] (6700 nM), -0.035 ± 0.078. Also, the “level (log10)” value was 0.025 ± 0.064 in test [3] (20000 nM); 0.026 ± 0.0028 in test [3] (60000 nM); -0.0185 ± 0.022 in test [4] (6700 nM); -0.067 ± 0.018 in test [4] (20000 nM); -0.172 ± 0.044 in test [4] (60000 nM); -0.0245 ± 0.013 in test [5] (6700 nM). In addition, the “level (log10)” value in test [5] (20000 nM) was -0.0005 ± 0.019; in test [5] (60000 nM) it was 0.0035 ± 0.025; in test [6] (6700 nM) it was -0.118 ± 0.005; in test [6] (20000 nM), -0.102 ± 0.044; in test [6] (60000 nM), -0.069 ± 0.03; in test [7] (6700 nM), -0.011 ± 0.018. For the same test system, the “level (log10)” value was -0.0375 ± 0.026 in test [7] (20000 nM) and -0.056 ± 0.03 in test [7] (60000 nM).
Regarding BE3C:CXCL9/MIG, the “level (log10)” value in test [1] (6700 nM) was 0.01 ± 0.0042; in test [1] (20000 nM), -0.0025 ± 0.005; in test [1] (60000 nM), 0.0095 ± 0.0092; in test [2] (6700 nM), -0.0095 ± 0.016; in test [2] (20000 nM), -0.142 ± 0.0028; in test [3] (6700 nM), -0.003 ± 0.0057. The “level (log10)” value in test [3] (20000 nM) is -0.005 ± 0.0099; in test [3] (60000 nM), 0.0095 ± 0.012; in test [4] (6700 nM) it was 0.008 ± 0.011; in test [4] (20000 nM), -0.003 ± 0.0042; in test [4] (60000 nM), -0.003 ± 0.0028; in test [5] (6700 nM), -0.008 ± 0.0057. The “level (log10)” value is -0.0075 ± 0.0021 in test [5] (20000 nM); 0.003 ± 0.02 in test [5] (60000 nM); -0.0115 ± 0.0035 in test [6] (6700 nM); -0.0075 ± 0.00071 in test [6] (20000 nM); 0.0115 ± 0.021 in test [6] (60000 nM); 0.018 ± 0.011 in test [7] (6700 nM). Further, the “level (log10)” value in test [7] (20000 nM) was found to be 0.007 ± 0.0099; in test [7] (60000 nM), 0.0065 ± 0.022.
As to LPS:SRB, the “level (log10)” value was 0.02 ± 0.0057 in test [1] (6700 nM); 0.022 ± 0.024 in test [1] (20000 nM); 0.017 ± 0.033 in test [1] (60000 nM); -0.015 ± 0.014 in test [2] (6700 nM); -0.117 ± 0.019 in test [2] (20000 nM); -0.0085 ± 0.0021 in test [3] (6700 nM). Also, the “level (log10)” value was -0.003 ± 0.0085 in test [3] (20000 nM); -0.011 ± 0.018 in test [3] (60000 nM); -0.006 ± 0.0071 in test [4] (6700 nM); -0.0065 ± 0.00071 in test [4] (20000 nM); -0.0245 ± 0.005 in test [4] (60000 nM); -0.003 ± 0.0057 in test [5] (6700 nM). Besides, the “level (log10)” value in test [5] (20000 nM) was -0.006 ± 0.0028; in test [5] (60000 nM), -0.023 ± 0.021; in test [6] (6700 nM), 0.0015 ± 0.0021; in test [6] (20000 nM) it was -0.005 ± 0.0014; in test [6] (60000 nM), 0.004 ± 0.0042; in test [7] (6700 nM), -0.0075 ± 0.0064. In addition, the “level (log10)” value in test [7] (20000 nM) amounted to 0.0015 ± 0.012; in test [7] (60000 nM) it was 0.003 ± 0.0014.
Turning to SAg:CCL2/MCP-1, the “level (log10)” value in test [1] (6700 nM) was -0.009 ± 0.018; in test [1] (20000 nM), -0.002 ± 0.0042; in test [1] (60000 nM), -0.008 ± 0.027; in test [2] (6700 nM), -0.06 ± 0.0042; in test [2] (20000 nM), -0.146 ± 0.0014; in test [3] (6700 nM), 0.007 ± 0.0085. Further, the “level (log10)” value was 0.0185 ± 0.0035 in test [3] (20000 nM); 0.0105 ± 0.013 in test [3] (60000 nM); -0.0035 ± 0.0035 in test [4] (6700 nM); -0.007 ± 0.011 in test [4] (20000 nM); 0.01 ± 0.034 in test [4] (60000 nM); 0.0075 ± 0.0092 in test [5] (6700 nM). The “level (log10)” value in test [5] (20000 nM) is -0.006 ± 0.016; in test [5] (60000 nM), 0.041; in test [6] (6700 nM), -0.0115 ± 0.00071; in test [6] (20000 nM) it was -0.023 ± 0.013; in test [6] (60000 nM), -0.0085 ± 0.036; in test [7] (6700 nM), -0.02 ± 0.017. Besides, the figures for the “level (log10)” value in test [7] (20000 nM) and in test [7] (60000 nM) were -0.004 ± 0.041 and 0.017 ± 0.051, respectively.
With BT:sIL-17A, the “level (log10)” value in test [1] (6700 nM) is 0.026 ± 0.12; in test [1] (20000 nM), -0.003 ± 0.0099; in test [1] (60000 nM) it was -0.111 ± 0.061; in test [2] (6700 nM), -0.135 ± 0.17; in test [2] (20000 nM), -0.524 ± 0.047; in test [3] (6700 nM), -0.127 ± 0.005. Also, the “level (log10)” value is -0.078 ± 0.2 in test [3] (20000 nM); -0.116 ± 0.096 in test [3] (60000 nM); -0.168 ± 0.2 in test [4] (6700 nM); -0.0675 ± 0.037 in test [4] (20000 nM); -0.282 ± 0.23 in test [4] (60000 nM); 0.018 ± 0.11 in test [5] (6700 nM). Further, the “level (log10)” value was -0.07 ± 0.017 in test [5] (20000 nM); -0.135 ± 0.059 in test [5] (60000 nM); 0.0205 ± 0.054 in test [6] (6700 nM); 0.0765 ± 0.13 in test [6] (20000 nM); -0.141 ± 0.084 in test [6] (60000 nM); 0.005 ± 0.098 in test [7] (6700 nM). Also, the figures for the “level (log10)” value in test [7] (20000 nM) and in test [7] (60000 nM) were -0.049 ± 0.18 and 0.0285 ± 0.13, respectively.
